Patent US12527886B2, “Radiopharmaceuticals and composition for thrombus imaging” (THE ASAN FOUNDATION, priority 2020, dated 2026)

Assay: Stability of Tc-99m labeled compound by radioTLC
Type: physicochemical
Settings: for Eluent A / Eluent B: in % (unit assumed)
Method: (§1) After 2.0 mg of GP-104 was dissolved in 1.8 mL of water for injection and 0.2 mL of ethanol, the resulting solution was allowed to stand with a pH of about 5 at room temperature for 10 minutes when 20 μL of SnCl2 (15 mg/mL) and 2 mL of Tc-99m were added thereto, and the reaction was terminated by adjusting the pH to 7 using a NaOH solution. Stability up to 4 hours was confirmed by radioTLC under conditions of pH 5 and pH 7, respectively, and the results are summarized in the following Table 1. (TLC analysis conditions: iTLC was used, Eluent A: methyl ethyl ketone 100%, Eluent B: pyridine:acetic acid:purified water=3:5:15, and purity calculation: Eluent A−Eluent B)
as §1, with “ethanol, pH was adjusted to about 5 and” for “ethanol,”, “stand” for “stand with a pH of about 5”, “(15 mg/mL), 20 μL of cysteine (10” for “(15”, “Table 2.” for “Table 1.”
(§2) After 2.0 mg of GP-105 was dissolved in 1.8 mL of water for injection and 0.2 mL of ethanol, the pH was adjusted to about 5 and the resulting solution was allowed to stand at room temperature for 10 minutes when 20 μL of SnCl2 (15 mg/mL) and 2 mL of Tc-99m were added thereto, and the reaction was terminated by adjusting the pH to 7 using a NaOH solution. Stability until 4 hours under conditions of pH 5 and pH 7 was each confirmed by radioTLC. (TLC analysis conditions: iTLC was used, Eluent A: methyl ethyl ketone 100%, Eluent B: pyridine:acetic acid:purified water=3:5:15, and purity calculation: Eluent A−Eluent B)
as §2, with “ethanol,” for “ethanol, the”, “(15 mg/mL), 20 μL of cysteine (10” for “(15”

[1] = Ex 4-1, no cysteine, pH 5, 0 hour
[2] = Ex 4-1, no cysteine, pH 5, 0.5 hours
[3] = Ex 4-1, no cysteine, pH 5, 1.0 hour
[4] = Ex 4-1, no cysteine, pH 5, 1.5 hours
[5] = Ex 4-1, no cysteine, pH 5, 2.0 hours
[6] = Ex 4-1, no cysteine, pH 5, 3.0 hours
[7] = Ex 4-1, no cysteine, pH 5, 4.0 hours
[8] = Ex 4-1, no cysteine, pH 7, 0 hour
[9] = Ex 4-1, no cysteine, pH 7, 0.5 hours
[10] = Ex 4-1, no cysteine, pH 7, 1.0 hour
[11] = Ex 4-1, no cysteine, pH 7, 1.5 hours
[12] = Ex 4-1, no cysteine, pH 7, 2.0 hours
[13] = Ex 4-1, no cysteine, pH 7, 3.0 hours
[14] = Ex 4-1, no cysteine, pH 7, 4.0 hours
[15] = Ex 4-2, cysteine, pH 5, 0.5 hours
[16] = Ex 4-2, cysteine, pH 5, 1.0 hour
[17] = Ex 4-2, cysteine, pH 5, 1.5 hours
[18] = Ex 4-2, cysteine, pH 5, 2.0 hours
[19] = Ex 4-2, cysteine, pH 5, 3.0 hours
[20] = Ex 4-2, cysteine, pH 5, 4.0 hours
[21] = Ex 4-2, cysteine, pH 7, 0.5 hours
[22] = Ex 4-2, cysteine, pH 7, 1.0 hour
[23] = Ex 4-2, cysteine, pH 7, 1.5 hours
[24] = Ex 4-2, cysteine, pH 7, 2.0 hours
[25] = Ex 4-2, cysteine, pH 7, 3.0 hours
[26] = Ex 4-2, cysteine, pH 7, 4.0 hours

Purity [1]: 82.93%
Eluent A [1]: 100
Eluent B [1]: 17.07
Purity [2]: 72.53%
Eluent A [2]: 95.67
Eluent B [2]: 23.14
Purity [3]: 73.13%
Eluent A [3]: 97.07
Eluent B [3]: 23.94
Purity [4]: 71.23%
Eluent A [4]: 94.54
Eluent B [4]: 23.31
Purity [5]: 60.81%
Eluent A [5]: 93.25
Eluent B [5]: 32.44
Purity [6]: 60.99%
Eluent A [6]: 80.67
Eluent B [6]: 19.68
Purity [7]: 57.11%
Eluent A [7]: 82.64
Eluent B [7]: 25.53
Purity [8]: 82.93%
Eluent A [8]: 100
Eluent B [8]: 17.07
Purity [9]: 65.63%
Eluent A [9]: 90.76
Eluent B [9]: 25.13
Purity [10]: 60.37%
Eluent A [10]: 85.38
Eluent B [10]: 25.01
Purity [11]: 58.73%
Eluent A [11]: 95.97
Eluent B [11]: 37.24
Purity [12]: 54.3%
Eluent A [12]: 96.17
Eluent B [12]: 41.87
Purity [13]: 54.12%
Eluent A [13]: 94
Eluent B [13]: 39.88
Purity [14]: 40.17%
Eluent A [14]: 85.5
Eluent B [14]: 45.33
Purity (Ex 4-2, cysteine, pH 5, 0 hour): 82.93%
Eluent A (Ex 4-2, cysteine, pH 5, 0 hour): 100
Eluent B (Ex 4-2, cysteine, pH 5, 0 hour): 17.07
Purity [15]: 92.37%
Eluent A [15]: 100
Eluent B [15]: 7.63
Purity [16]: 76.25%
Eluent A [16]: 89.07
Eluent B [16]: 12.82
Purity [17]: 87.74%
Eluent A [17]: 100
Eluent B [17]: 12.26
Purity [18]: 38.64%
Eluent A [18]: 57.3
Eluent B [18]: 18.66
Purity [19]: 77.6%
Eluent A [19]: 97.4
Eluent B [19]: 19.8
Purity [20]: 76.51%
Eluent A [20]: 98.31
Eluent B [20]: 21.8
Purity (Ex 4-2, cysteine, pH 7, 0 hour): 90.38%
Eluent A (Ex 4-2, cysteine, pH 7, 0 hour): 100
Eluent B (Ex 4-2, cysteine, pH 7, 0 hour): 9.62
Purity [21]: 92.28%
Eluent A [21]: 98.65
Eluent B [21]: 6.37
Purity [22]: 85.19%
Eluent A [22]: 98.4
Eluent B [22]: 13.21
Purity [23]: 91.63%
Eluent A [23]: 97.22
Eluent B [23]: 5.59
Purity [24]: 89.39%
Eluent A [24]: 95.62
Eluent B [24]: 6.23
Purity [25]: 90.09%
Eluent A [25]: 100
Eluent B [25]: 9.91
Purity [26]: 96.79%
Eluent A [26]: 100
Eluent B [26]: 3.21
Purity (addition of cysteine, pH of 5 (Table 8)): ≥ 70%
Purity (addition of cysteine, pH of 7 (Table 8)): ≥ 90%
maximum purity (no cysteine, pH 5 and pH 7 (text to Table 7)): 82.93%
SMILES: O=C(O)C[C@H](NC(=O)[C@@H]1CCCN(C(=O)CCC2CCNCC2)C1)c1cncc(OCCNC(=O)CN2CC(=O)[O][99Tc-]3([O]C(=O)C2)[O]C(=O)CN(CC(=O)NCCOc2cncc([C@H](CC(=O)O)NC(=O)[C@@H]4CCCN(C(=O)CCC5CCNCC5)C4)c2)CC(=O)[O]3)c1 [[Tc-99m]GP-105]
